# Entries after “also recorded” stand apart in the source; their conditions may differ.
# Legend:
# [1] = tested on: RA/Bt2cAMP-treated F9 cells; assay: DiI-HDL uptake by fluorescence-activated cell (FAC) scanning; assay type: cell-based, mouse; details: DiI-HDL 1 μg/ml, 37° C., competitors preincubated, apolipoproteins and RAP 1 μM, apoE 0.25 μM, heparin 80 μM, IgGs 200 μg/ml, heparinase I 10 U/ml
# Procedure: Untreated and RA/Bt2cAMP-treated F9 cells (1-1.5×10^5 cells/cm^2) were grown for 18 hours in serum-free medium (DMEM, ITS, penicillin, and streptomycin). After washing the cell layers with the same serum-free medium, apoE-free DiI-HDL was added to a final concentration of 1 μg/ml and incubated for 1-2 hours at 37° C., 5% CO2. For competition experiments, competitors were added in serum-free medium and incubated for 0.5 hours at 37° C., 5% CO2 prior to the addition of the DiI-HDL. After the incubation, the medium was removed, cell layers washed with serum-free medium and the cells released with a 0.5 mg/ml trypsin-0.53 mM EDTA solution (Mediatech). The cells were then pelleted by centrifugation at 180×g and resuspended in DMEM. Twice more, the cells were pelleted by centrifugation at 180×g, and resuspended in dPBS. The cells were then subjected to FAC sorting on a FACStarplus instrument (Becton Dickinson, San Jose, Calif.).
# RA/Bt2cAMP-treated and -untreated F9 cells (1-1.5×10^5 cclls/cm^2) were grown for 18 h in SFM. After washing the cell layers with SFM, DiI-HDL or DIO-LDL was added to a final concentration of 1 μg/ml and incubated for 2 h at 37° C., 5% CO2. For competition experiments, competitors (HDL, HDL2, HDL3 and their corresponding apoE-free forms), LDL, oxidized LDL, VLDL, §-VLDL, Lp(a) ([…]), apoA-I (28.3 μg/ml, 1 μM), apoA-II (I 7.3 μg/ml, 1 μM), apoC-I (6.6 μg/ml, 1 μM), apoC-III (8.8 μg/ml, 1 μM), apoJ (70 μg/ml, 1 μM), ovalbumin (45 μg/ml, 1 μM), RAP (39 μg/ml, 1 μM), apoE (8.5 μg/ml, 0.25 μM), heparin (80 μM, 250 U/ml) or IgGs (200 μg/ml) were added in SFM and incubated for 45 min at 37° C., 5% CO2 prior to the addition of the fluorescent lipoproteins. After the incubation, the medium was removed, cell layers were washed with SFM and the cells were released with trypsin-EDTA-proteinase K. The cells were washed once with DMEM, twice with dPBS, then subjected to FAC scanning on a FACStar Plus instrument (Becton Dickinson, San Jose, Calif.). Plotted data are from gated cells having fluorescence intensity values greater than the autofluorescence values of 99% of unlabeled cells. For some experiments, cell layers were treated with hepaninase I (10 U/ml) for 2 h prior to the addition of the DiI-HDL.
# [2] = tested on: RA/Bt2cAMP-treated F9 cells; assay: [125I]-HDL internalization and degradation assay; assay type: cell-based, mouse; details: [125I]-HDL 2 μg/ml, 6.5 h at 37° C.; unlabeled HDL 80 μg/ml, RAP 1 μM, chloroquine 50 μM, anti-cubilin IgG 150 μg/ml
# Procedure: HDL internalization and degradation assays were performed in a manner similar to LDL and apolipoprotein J internalization and degradation assays described previously (Stefansson et al., 1995; Kounnas et al., 1995). ApoE-free HDL (HDL3) was labeled with [^125I]-iodine using the iodine monochloride method (Goldstein et al., 1983). RA/Bt2cAMP-treated and -untreated F9 cells were seeded onto gelatin-coated 3.83 cm^2 wells (Corning, Corning, N.Y.) at 1.5-1.75×10^5 cells/well and allowed to grow for 18 h at 37° C., 5% CO2. Prior to the addition of [^125I]-HDL, the cells were washed with serum-free DMEM and incubated in the assay medium (DMEM, 20 mM HEPES, ITS, penicillin/streptomycin, and 1.5% BSA) containing unlabeled HDL3 (80 μg/ml), RAP (1 μM), chloroquine (50 μM) (Sigma) or BSA (10 μM) and incubated for 0.5 hours at 37° C., 5% CO2. The medium was then removed and [^125I]-HDL3 (2 μg/ml) in serum-free medium or in serum-free medium containing unlabeled HDL3 (80 μg/ml), RAP (1 μM), chloroquine (50 μM) or BSA (10 μM) was added and incubated with the cells for 6.5 h at 37° C., 5% CO2. The conditioned culture medium was treated with trichloroacetic acid (final concentration 10%) and centrifuged at 10,000×g for 10 min. The amount of radioactivity present in the supernatant was taken to represent the amount of degraded HDL (Goldstein and Brown, 1974). […] The released cells were pelleted by centrifugation at 1,000×g for 15 min and the amount of radioactivity in the cell pellet measured.
# HDL internalization and degradation assays were performed as described previously for LDL and apolipoprotein J (Hammad et al., 1997; Kounnas et al., 1995; Stefansson et al., 1995a). […] The amount of radioactivity in the supernatant was taken to represent the amount of degraded HDL (Goldstein and Brown, 1974). […] The released cells were pelleted by centrifugation at 1,000×g for 15 min and the amount of radioactivity in the cell pellet was measured and taken to represent the amount of internalized HDL.
# [3] = tested on: RA/Bt2cAMP-treated F9 cells; assay: Cell layer-associated [35S]-sulfate after heparinase I treatment; assay type: cell-based, mouse; details: heparinase I 10 U/ml for 2 h; relative to controls
# [4] = tested on: visceral yolk sac endoderm; assay: DiI-HDL uptake by mouse embryo yolk sac (ex utero culture, confocal microscopy); details: ± S.D.; DiI-HDL 1 μg/ml 1 h; RAP, ovalbumin 1 μM; IgGs 400 μg/ml; p<0.01 vs control
# Procedure: Embryos (8-8.5 days post-conception) were removed from timed pregnant ICR mice (Harlan Sprague Dawley, Inc.) so as to leave visceral yolk sac endoderm intact and placed in DMEM. The embryos were then incubated in DMEM containing RAP (1 μM), ovalbumin (1 μM), rabbit anti-cubilin IgG (400 μg/ml) or normal rabbit IgG (400 μg/ml) for 0.5 h at 37° C., 5% CO2. DiI-HDL was added to a final concentration of (1 μg/ml) and incubated for 1 h at 37° C., 5% CO2. The medium was removed and the embryos gently washed with dPBS and fixed with 3% paraformaldehyde for 15 min. The fixed embryos were placed in dPBS, 0.1% azide in a well slide and examined by laser scanning confocal microscopy. The intensity of yolk sac fluorescence in mouse embryos incubated with DiI-HDL in the presence of either RAP, ovalbumin, anti-cubilin IgG or control IgG was evaluated by seven people in a double blinded fashion. The assessments of relative intensity were analyzed by a nonparametric statistical test using RANK and ANOVA procedures (SAS Institute, Inc., Cary, N.C.).
Molecule,DiI-HDL uptake in presence of competitor [1],further results
"apoA-I: Human apolipoprotein, major apolipoprotein component of HDL",competed effectively,DiI-HDL uptake in presence of competitor ([1]; listed as ApoAI): inhibit HDL uptake
"ApoAII: Human apolipoprotein, major apolipoprotein component of HDL",inhibit HDL uptake,DiI-HDL uptake in presence of competitor ([1]; listed as apoA-E): competed effectively
apoE: Human apoE3 purchased from Calbiochem,competed effectively,–
"apoC-1: Human apolipoprotein (TPDVSSALDKLKEFGNTLEDKARELISRIKQSELSAKMREWFSETFQKVKEKLKIDS; UniProt P02654 27-83, looked up)",little or no ability to compete,–
ApoE2: apolipoprotein component of HDL,inhibit HDL uptake,–
heparin [reference compound],Neither heparin nor heparinase I pretreatment of RA/Bt2cAMP-differentiated F9 cells inhibited DiI-HDL uptake; also recorded: did not block HDL uptake,–
Fucoidan [reference compound],inability of these ligands to block HDL uptake,–
"CCN(CC)CCCC(C)Nc1ccnc2cc(Cl)ccc12 (centres unmarked) [chloroquine, reference compound]",–,degradation of [125I]-HDL [2]: effectively block the degradation
Aprotinin [reference compound],inability of these ligands to block HDL uptake,–
heparinase I [reference compound],Neither heparin nor heparinase I pretreatment of RA/Bt2cAMP-differentiated F9 cells inhibited DiI-HDL uptake,DiI-HDL uptake in presence of competitor ([1]; listed as heparinase): did not block HDL uptake; reduction of cell layer-associated [35S]-sulfate [3]: 50%
apoj: apolipoprotein J from Quidel,little or no ability to compete,–
apoC-III: Human apolipoprotein,little or no ability to compete,–
"ovalbumin: control protein (protein, UniProt P01012 2-386, looked up) Ovalbumin: GSIGAASMEFCFDVFKELKVHHANENIFYCPIAIMSALAMVYLGAKDSTRTQINKVVRFDKLPGFGDSIEAQCGTSVNVHSSLRDILNQITKPNDVYSFSLASRLYAEERYPILPEYLQCVKELYRGGLEPINFQTAADQARELINSWVESQTNGIIRNVLQPSSVDSQTAMVLVNAIVFKGLWEKAFKDEDTQAMPFRVTEQESKPVQMMYQIGLFRVASMASEKMKILELPFASGTMSMLVLLPDEVSGLEQLESIINFEKLTEWTSSNVMEERKIKVYLPRMKMEEKYNLTSVLMAMGITDVFSSSANLSGISSAESLKISQAVHAAHAEINEAGREVVGSAEAGVDAASVSEEFRADHPFLFCIKHIATNAVLFFGRCVSP",–,fluorescence intensity RANK score of DiI-HDL incorporation into extraembryonic endoderm [4]: 4.16±0.15
